Results from the Kinase Knowledgebase extract (Sharma et al. 2016).
pIC50: −log10 of the molar value.

Legend:
[1] = target: EGFR (human), P00533 [WT]
[2] = target: EGFR (human), P00533 [Inhibition of EGFR(L858RT/790M) Kinase Activity]
EGFR (human) = EGFR (human) (UniProt P00533); conditions: hcc827
Sequence of EGFR (human) (P00533 whole entry, looked up): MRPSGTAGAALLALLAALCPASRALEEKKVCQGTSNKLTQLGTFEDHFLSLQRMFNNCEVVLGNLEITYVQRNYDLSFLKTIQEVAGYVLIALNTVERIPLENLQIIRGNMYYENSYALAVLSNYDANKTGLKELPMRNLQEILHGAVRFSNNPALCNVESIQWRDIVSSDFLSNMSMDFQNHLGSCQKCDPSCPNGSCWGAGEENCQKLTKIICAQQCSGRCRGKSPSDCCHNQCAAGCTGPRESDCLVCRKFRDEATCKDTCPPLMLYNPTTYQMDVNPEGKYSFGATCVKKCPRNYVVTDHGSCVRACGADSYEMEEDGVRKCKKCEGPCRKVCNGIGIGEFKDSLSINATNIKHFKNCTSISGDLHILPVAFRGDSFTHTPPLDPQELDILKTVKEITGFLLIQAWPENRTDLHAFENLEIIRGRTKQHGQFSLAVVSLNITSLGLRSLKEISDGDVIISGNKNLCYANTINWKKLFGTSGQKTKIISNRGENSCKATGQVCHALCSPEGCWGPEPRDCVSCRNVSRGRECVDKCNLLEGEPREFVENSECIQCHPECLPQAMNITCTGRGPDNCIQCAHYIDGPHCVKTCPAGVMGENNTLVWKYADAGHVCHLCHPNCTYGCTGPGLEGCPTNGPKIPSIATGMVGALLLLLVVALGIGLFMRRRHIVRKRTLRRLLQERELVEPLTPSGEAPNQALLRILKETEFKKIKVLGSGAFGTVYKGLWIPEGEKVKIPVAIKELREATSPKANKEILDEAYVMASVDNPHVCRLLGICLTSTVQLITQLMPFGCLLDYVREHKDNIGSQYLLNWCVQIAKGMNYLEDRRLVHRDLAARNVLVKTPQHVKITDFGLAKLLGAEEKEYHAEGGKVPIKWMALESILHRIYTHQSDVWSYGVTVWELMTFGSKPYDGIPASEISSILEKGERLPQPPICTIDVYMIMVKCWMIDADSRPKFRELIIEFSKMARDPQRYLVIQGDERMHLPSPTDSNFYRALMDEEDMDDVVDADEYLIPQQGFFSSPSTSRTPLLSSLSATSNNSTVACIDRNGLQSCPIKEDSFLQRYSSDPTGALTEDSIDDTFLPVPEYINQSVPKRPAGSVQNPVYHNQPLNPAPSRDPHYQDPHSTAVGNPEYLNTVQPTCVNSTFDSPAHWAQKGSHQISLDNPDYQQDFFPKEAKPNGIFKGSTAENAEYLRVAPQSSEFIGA

Sequence of EGFR (human), P00533 [WT] (P00533 whole entry, looked up): as above
Sequence of EGFR (human), P00533 [Inhibition of EGFR(L858RT/790M) Kinase Activity] (P00533 whole entry, looked up, change not shown): as the sequence (P00533 whole entry, looked up) above

| Structure (SMILES) | pIC50 [1] | pIC50 [2] | pIC50 (EGFR (human)) |
| --- | --- | --- | --- |
| C=CC(=O)N1CCc2c(sc3ncnc(N[C@H](CO)Cc4ccccc4)c23)C1 | > 7.23 | 5.60 to 6.30 | 6.00 to 6.52 |
| O=C(/C=C/CN1CCOCC1)N1CCc2c(sc3ncnc(N[C@H](CO)c4ccccc4)c23)C1 | > 7.23 | 5.60 to 6.30 | 7.00 to 9.00 |
| CN(C)C/C=C/C(=O)N1CCc2c(sc3ncnc(N[C@H](COCc4cccc(F)c4)c4ccccc4)c23)C1 | > 7.23 | 6.30 to 8.00 | 7.00 to 9.00 |
| C=CC(=O)N1CCc2c(sc3ncnc(N[C@H](COCc4cccc([N+](=O)[O-])c4)c4ccccc4)c23)C1 | > 7.23 | 6.30 to 8.00 | 7.00 to 9.00 |
| CN(C)C/C=C/C(=O)N1CCc2c(sc3ncnc(N[C@H](COCc4ccccc4)c4ccccc4)c23)C1 | > 7.23 | 5.60 to 6.30 | 7.00 to 9.00 |
| CCN(CC)C/C=C/C(=O)N1CCc2c(sc3ncnc(N[C@H](C)c4ccccc4)c23)C1 | > 7.23 | 5.60 to 6.30 | 7.00 to 9.00 |

Further lines, results first:

| pIC50 [1] | pIC50 [2] | pIC50 (EGFR (human)) | Structure (SMILES) |
| --- | --- | --- | --- |
| 6.05 to 7.00 | 5.60 to 6.30 | 6.00 to 6.52 | C=CC(=O)N1CCc2c(sc3ncnc(N[C@@H](CCO)c4ccccc4)c23)C1 |
| > 7.23 | 6.30 to 8.00 | 7.00 to 9.00 | C=CC(=O)N1CCc2c(sc3ncnc(N[C@H](CCO)c4ccccc4)c23)C1 |
| > 7.23 | 6.30 to 8.00 | 7.00 to 9.00 | C=CC(=O)N1CCc2c(sc3ncnc(N[C@H](CO)c4ccccc4)c23)C1 |
